The record followed here is ChEMBL document CHEMBL3872238, “Selectivity switch between FAK and Pyk2: Macrocyclization of FAK inhibitors improves Pyk2 potency” (Bioorg Med Chem Lett, 2016).

Values after ≈ are worked out from the molar mass of the structure shown. Bounds are passed on as bounds.

The nature of data set [1]: Kinetic solubility of compound at pH 7. Type of data set: physicochemical. The settings on record: buffer, read-out: Kinetic_solubility.
Data set [2] is described as follows: Half life in human liver microsomes. Type of data set: ADME.
Data set [3] in a line: Half life in dog liver microsomes. Type of data set: ADME, Canis lupus familiaris. For orientation: Microsomes from liver hold many membrane-bound enzymes, among them those of drug oxidation.
A short description of data set [4]: Half life in mouse liver microsomes. Type of data set: ADME.
A short description of data set [5]: Permeability from apical side to basolateral side in human Caco2 cells. To be noted: Caco-2, read-out: permeability. Type of data set: ADME, cell-based. A general note: Caco-2 monolayers are a common model of the intestinal barrier.
The nature of data set [6]: Permeability from basolateral side to apical side in human Caco2 cells. Type of data set: ADME, cell-based. To be noted: Caco-2, read-out: permeability.

Take `CN1Cc2cccnc2N(S(C)(=O)=O)C/C=C/c2cc(ccc2N2CCOCC2)Nc2ncc(C(F)(F)F)c1n2`: the solubility kinetic in data set [1] was 1 µM (≈ 0.576 µg/mL).

The half-life is how long it takes for the measured level to halve. `CN1Cc2ccncc2N(S(C)(=O)=O)C/C=C/c2cc(ccc2N2CCOCC2)Nc2ncc(C(F)(F)F)c1n2` registered a half-life in data set [2] of 4.38 h. The solubility kinetic in data set [1] was 3 µM (≈ 1.73 µg/mL).

On to `CS(=O)(=O)N1CCCCC(=O)N2CCc3cc(ccc32)Nc2ncc(C(F)(F)F)c(n2)NCc2cccnc21`, for which the half-life in data set [3], in data set [2] and in data set [4] was less than 1 h in each case. Also, in data set [5], the Papp A→B worked out at 30 ×10⁻⁶ cm/s. Moreover, the Papp B→A in data set [6] came to 32 ×10⁻⁶ cm/s.

Regarding `CN1Cc2ccccc2N(S(C)(=O)=O)CCCCC(=O)N2CCc3cc(ccc32)Nc2ncc(C(F)(F)F)c1n2`, the half-life in data set [3], in data set [2] and in data set [4] was less than 1 h each time. For the same molecule, the solubility kinetic in data set [1] is less than 1.6 µM.

Consider `CS(=O)(=O)N1C/C=C/c2cccc(c2)Nc2ncc(C(F)(F)F)c(n2)NCc2cccnc21`, for which the solubility kinetic in data set [1] stood at 0.3 µM (≈ 0.143 µg/mL).

Turning to `CS(=O)(=O)N1CCCCC(=O)N2CCc3cc(ccc32)Nc2ncc(C(F)(F)F)c(n2)NCc2ccccc21`, the half-life in data set [3], in data set [2] and in data set [4] was less than 1 h throughout. Moreover, the solubility kinetic in data set [1] is less than 1.6 µM.

In the case of `CCS(=O)(=O)N1CCCCC(=O)N2CCc3cc(ccc32)Nc2ncc(C(F)(F)F)c(n2)NCc2ccccc21`, the half-life in data set [3], in data set [2] and in data set [4] was less than 1 h in each case. In addition, the solubility kinetic in data set [1] was less than 1.6 µM.

For the molecule `CN(c1ncccc1CNc1nc(Nc2ccc3c(c2)CC(=O)N3)ncc1C(F)(F)F)S(C)(=O)=O` [PF-00562271], the Papp A→B in data set [5] came out at 11 ×10⁻⁶ cm/s. Further, the Papp B→A in data set [6] was found to be 29 ×10⁻⁶ cm/s.
